Assay: Biodistribution of ^64Cu complexes in balb/c mice
Experimental: The biodistribution of the ^64Cu complexes of compounds (1), (3) and (4) (0.10 ml intravenous injection) were evaluated in balb/c mice (5 animals per time point) at 3, 5, 10, 15, 20 and 30 minute time intervals. Biodistribution studies were performed in duplicate.

% injected dose per gram (BLADDER, 3 MIN): 24.36 % INJECTED DOSE PER GRAM | % injected dose per gram (BLADDER, 5 MIN): 31.12 % INJECTED DOSE PER GRAM | % injected dose per gram (BLADDER, 10 MIN): 27.75 % INJECTED DOSE PER GRAM | % injected dose per gram (BLADDER, 15 MIN): 15.17 % INJECTED DOSE PER GRAM | % injected dose per gram (BLADDER, 20 MIN): 23.29 % INJECTED DOSE PER GRAM | % injected dose per gram (BLADDER, 30 MIN): 122.93 % INJECTED DOSE PER GRAM | % injected dose per gram (BLOOD, 3 MIN): 8.68 % INJECTED DOSE PER GRAM | % injected dose per gram (BLOOD, 5 MIN): 6.32 % INJECTED DOSE PER GRAM | % injected dose per gram (BLOOD, 10 MIN): 5.45 % INJECTED DOSE PER GRAM | % injected dose per gram (BLOOD, 15 MIN): 2.48 % INJECTED DOSE PER GRAM | % injected dose per gram (BLOOD, 20 MIN): 2.63 % INJECTED DOSE PER GRAM | % injected dose per gram (BLOOD, 30 MIN): 1.14 % INJECTED DOSE PER GRAM | % injected dose per gram (BONE, 3 MIN): 2.25 % INJECTED DOSE PER GRAM | % injected dose per gram (BONE, 5 MIN): 1.87 % INJECTED DOSE PER GRAM | % injected dose per gram (BONE, 10 MIN): 1.79 % INJECTED DOSE PER GRAM | % injected dose per gram (BONE, 15 MIN): 1.23 % INJECTED DOSE PER GRAM | % injected dose per gram (BONE, 20 MIN): 1.25 % INJECTED DOSE PER GRAM | % injected dose per gram (BONE, 30 MIN): 0.78 % INJECTED DOSE PER GRAM | % injected dose per gram (GIT, 3 MIN): 2.75 % INJECTED DOSE PER GRAM | % injected dose per gram (GIT, 5 MIN): 2.21 % INJECTED DOSE PER GRAM | % injected dose per gram (GIT, 10 MIN): 1.85 % INJECTED DOSE PER GRAM | % injected dose per gram (GIT, 15 MIN): 1.11 % INJECTED DOSE PER GRAM | % injected dose per gram (GIT, 20 MIN): 1.05 % INJECTED DOSE PER GRAM | % injected dose per gram (GIT, 30 MIN): 1.16 % INJECTED DOSE PER GRAM | % injected dose per gram (HEART, 3 MIN): 3.11 % INJECTED DOSE PER GRAM | % injected dose per gram (HEART, 5 MIN): 2.25 % INJECTED DOSE PER GRAM | % injected dose per gram (HEART, 10 MIN): 2.27 % INJECTED DOSE PER GRAM | % injected dose per gram (HEART, 15 MIN): 0.89 % INJECTED DOSE PER GRAM | % injected dose per gram (HEART, 20 MIN): 1.23 % INJECTED DOSE PER GRAM | % injected dose per gram (HEART, 30 MIN): 0.40 % INJECTED DOSE PER GRAM | % injected dose per gram (KIDNEY, 3 MIN): 23.18 % INJECTED DOSE PER GRAM | % injected dose per gram (KIDNEY, 5 MIN): 11.50 % INJECTED DOSE PER GRAM | % injected dose per gram (KIDNEY, 10 MIN): 12.80 % INJECTED DOSE PER GRAM | % injected dose per gram (KIDNEY, 15 MIN): 6.77 % INJECTED DOSE PER GRAM | % injected dose per gram (KIDNEY, 20 MIN): 7.77 % INJECTED DOSE PER GRAM | % injected dose per gram (KIDNEY, 30 MIN): 4.95 % INJECTED DOSE PER GRAM | % injected dose per gram (LIVER, 3 MIN): 2.29 % INJECTED DOSE PER GRAM | % injected dose per gram (LIVER, 5 MIN): 1.50 % INJECTED DOSE PER GRAM | % injected dose per gram (LIVER, 10 MIN): 1.42 % INJECTED DOSE PER GRAM | % injected dose per gram (LIVER, 15 MIN): 0.82 % INJECTED DOSE PER GRAM | % injected dose per gram (LIVER, 20 MIN): 0.69 % INJECTED DOSE PER GRAM | % injected dose per gram (LIVER, 30 MIN): 0.50 % INJECTED DOSE PER GRAM | % injected dose per gram (LUNGS, 3 MIN): 6.51 % INJECTED DOSE PER GRAM | % injected dose per gram (LUNGS, 5 MIN): 4.45 % INJECTED DOSE PER GRAM | % injected dose per gram (LUNGS, 10 MIN): 3.91 % INJECTED DOSE PER GRAM | % injected dose per gram (LUNGS, 15 MIN): 2.06 % INJECTED DOSE PER GRAM | % injected dose per gram (LUNGS, 20 MIN): 2.73 % INJECTED DOSE PER GRAM | % injected dose per gram (LUNGS, 30 MIN): 0.85 % INJECTED DOSE PER GRAM | % injected dose per gram (MUSCLE, 3 MIN): 1.81 % INJECTED DOSE PER GRAM | % injected dose per gram (MUSCLE, 5 MIN): 1.81 % INJECTED DOSE PER GRAM | % injected dose per gram (MUSCLE, 10 MIN): 2.39 % INJECTED DOSE PER GRAM | % injected dose per gram (MUSCLE, 15 MIN): 2.28 % INJECTED DOSE PER GRAM | % injected dose per gram (MUSCLE, 20 MIN): 1.17 % INJECTED DOSE PER GRAM | % injected dose per gram (MUSCLE, 30 MIN): 1.33 % INJECTED DOSE PER GRAM | % injected dose per gram (SKIN, 3 MIN): 5.82 % INJECTED DOSE PER GRAM | % injected dose per gram (SKIN, 5 MIN): 5.59 % INJECTED DOSE PER GRAM | % injected dose per gram (SKIN, 10 MIN): 5.48 % INJECTED DOSE PER GRAM | % injected dose per gram (SKIN, 15 MIN): 2.61 % INJECTED DOSE PER GRAM | % injected dose per gram (SKIN, 20 MIN): 2.96 % INJECTED DOSE PER GRAM | % injected dose per gram (SKIN, 30 MIN): 1.63 % INJECTED DOSE PER GRAM | % injected dose per gram (SPLEEN, 3 MIN): 2.09 % INJECTED DOSE PER GRAM | % injected dose per gram (SPLEEN, 5 MIN): 1.48 % INJECTED DOSE PER GRAM | % injected dose per gram (SPLEEN, 10 MIN): 1.54 % INJECTED DOSE PER GRAM | % injected dose per gram (SPLEEN, 15 MIN): 1.44 % INJECTED DOSE PER GRAM | % injected dose per gram (SPLEEN, 20 MIN): 0.69 % INJECTED DOSE PER GRAM | % injected dose per gram (SPLEEN, 30 MIN): 0.52 % INJECTED DOSE PER GRAM | % injected dose per gram (STOMACH, 3 MIN): 3.50 % INJECTED DOSE PER GRAM | % injected dose per gram (STOMACH, 5 MIN): 2.73 % INJECTED DOSE PER GRAM | % injected dose per gram (STOMACH, 10 MIN): 2.08 % INJECTED DOSE PER GRAM | % injected dose per gram (STOMACH, 15 MIN): 1.50 % INJECTED DOSE PER GRAM | % injected dose per gram (STOMACH, 20 MIN): 1.16 % INJECTED DOSE PER GRAM | % injected dose per gram (STOMACH, 30 MIN): 0.74 % INJECTED DOSE PER GRAM
Compound: NC12CNCCNCC(N)(CNCCNC1)CNCCNC2.[64Cu+2] [^64Cu-labelled compound (1)]

— patent US6869589B1, “Cryptate compounds and methods for diagnosis and therapy” (Australian Nuclear Science & Technology Organization, priority 1999, dated 2005)
